pIC50: −log10 of the molar value. “And” between values parts separate entries of the source, which are not always exact repeats. Identical values can stand only once. Like-named read-outs stand apart in the source and are kept apart here.

The target of one test is T1, SYK lysate (Homo sapiens, UniProt P43405).
T1 construct: Stimulation of Ramos Cells with Anti-IgM Ab to Produce Syk & Preparation of Lysates; endogenous in cells; host or cells: Ramos B cells (human Burkitt's lymphoma, clone 296.4C10, ATCC), stimulated with anti-IgM and lysed in 1% Triton X-100
The test can be described thus: Basic Syk Enzyme Activity. Type of test: biochemical. Conditions: read-out: average pIC50 (converted). The protocol:
3 μl of SYK lysate diluted 16-fold in assay buffer (20 mM TRIS pH 7.4, 0.01% BSA, 0.1% Pluronic F-68) was added to wells containing 0.1 μl of various concentrations of compound or DMSO vehicle (1.7% final) in a Greiner low volume 384 well black plate. Following 15 min pre-incubation at room temperature, the reaction was initiated by the addition of 3 μl of substrate reagent containing Y7 Sox peptide, (Invitrogen Cat. # KNZ3071, 5 μM final), ATP (35 μM final) and MgCl2 (10 mM final) in assay buffer. The reaction was incubated at room temperature before measuring fluorescence intensity (λex 360/λem 485) on an Envision plate reader (Perkin Elmer Life Sciences, Waltham, Mass., USA) at 15 min and 55 min post-substrate addition.
Ramos B Cells (human B cells of Burkitt's lymphoma, clone 296.4C10, ATCC) were cultured in suspension in growth medium (RPMI-1640, Sigma; supplemented with 2 mM L-glutamine, Gibco; 10 mM Hepes, Sigma; 1 mM sodium pyruvate, Sigma; 10% v/v heat-inactivated FCS, Gibco). Cells were grown in Corning Cellstacks (6360 cm^2) in 1 liter volume and viability and cell density were monitored daily. Cells were maintained at <1.5×10e6/ml and >92% viability.
Cells were stimulated at 20×10^6 cells/ml using 15 ug/ml (final concentration) anti-IgM antibody. Following harvest (as described above), a total of 4×10^9 cells were resuspended in 180 ml pre-warmed (37° C.) DPBS in a Corning 500 ml centrifuge bottle. 20 ml anti-IgM antibody at 150 ug/ml were added to each 500 ml centrifuge bottle (working stock made up in DPBS pre-warmed to 37° C.). Cells were incubated for exactly 5 min at 37° C. following the addition of anti IgM antibody. Following 5 min stimulation, 300 ml ice-cold DPBS were added to each bottle to stop the stimulation (temperature drops to ˜12° C.) then cells were centrifuged at 2000 rpm (Sorvall Legend RT+ centrifuge—pre-chilled to 4° C.). Cells were washed by resuspension in ice-cold DPBS and centrifugation as above. The cell pellet was then lysed in ice-cold lysis buffer containing 1% triton-x-100 at a ratio of 150 ul/1×10^7 cells (i.e. 48 ml lysis buffer). Following the addition of lysis buffer, the cells were pipetted up & down & kept on ice for 15 min. The clarified lysate was then obtained by centrifugation (Sorvall Evolution RC (SLA-1500 rotor, ˜20,000 g (˜14,500 rpm), 45 min, 4° C.).
Lysate was aliquoted, snap-frozen on dry-ice & stored at −80° C. prior to assay.
Lysis Buffer: 50 mM TRIS pH7.5+150 mM NaCl+1% Triton-X-100+2 mM EGTA+1:100 dilution inhibitor cocktails (phosphatase inhibitor cocktail set II, calbiochem cat no. 524625 & protease inhibitor cocktail set V, calbiochem cat no. 539137)

The next test concerns Whole blood B cells. The test can be described thus: CD69 Whole Blood Assay. Type of test: cell-based. Conditions: Homo sapiens, B-cell, anti-IgM stimulated; for pIC50: read-out: average IC50; for IC50: read-out: average pIC50 (converted). The protocol:
Whole blood B cells are stimulated ex-vivo using anti-IgM. […] The subsequent autophosphorylation of Syk leads to initiation of a signalling cascade resulting in B cell activation as indicated by expression of the activation marker CD69 on the cell surface. CD20/CD69+ve whole blood B cells are detected by flow cytometry.
100 μl heparinised human blood was added to a 5 ml polypropylene tube containing 1 μl appropriately diluted compound solution and incubated for 25 min at 37° C. with 5% CO2. B cells were stimulated with 10 μl Fab′2 fragments of goat anti-human IgM (43 μg/ml final concentration) for a further 3.5 h under the conditions previously described. The red blood cells were lysed and all other cells fixed by the addition of 2 ml Lyse/Fix buffer for 10 min at room temperature.
The cells were stained using a cocktail of mouse anti-human CD20 FITC and mouse anti-human CD69 PE conjugated antibodies. CD20/CD69+ve B cells present in the sample were detected by flow cytometry.
Compound was prepared as a 10 mM stock in DMSO, further diluted down in DMSO to 1 mM and a dilution series prepared in DMSO using 7 successive 3-fold dilutions to give the final concentration range to be tested of 1×10^−5 to 4.57×10^−9M. Compound dilutions were prepared using the Biomek 2000 automated robotic pipetting system.

Usually pIC50 stands for −log10 of the IC50, conventionally taken in molar units. As for `CCn1cc(-c2cc3ncccc3c(NC[C@]3(F)CCCNC3)n2)cn1` [Example 1, 7-(1-Ethyl-1H-pyrazol-4-yl)-N-{[(3S)-3-fluoro-3-piperidinyl]methyl}-1,6-naphthyridin-5-amine], the IC50 was ≤ 100 nM and 25.1 nM at SYK lysate (as the free base); at most 316 nM on SYK lysate (hydrochloric acid salts); at most 1000 nM with Whole blood B cells (hydrochloric acid salts). In addition, the pIC50 in the test with Whole blood B cells (as the free base) and in the test with Whole blood B cells (hydrochloric acid salts) was over 6.00 throughout.

Take `CC(C)(C)n1cc(-c2cc3ncccc3c(NC[C@]3(F)CCCNC3)n2)cn1` [Example 2, 7-[1-(1,1-Dimethylethyl)-1H-pyrazol-4-yl]-N-{[(3S)-3-fluoro-3-piperidinyl]methyl}-1,6-naphthyridin-5-amine]: the IC50 was ≤ 100 nM and 20 nM on SYK lysate (as the free base); at most 316 nM at SYK lysate (hydrochloric acid salts); at most 1000 nM with Whole blood B cells (hydrochloric acid salts). Moreover, the pIC50 in the test with Whole blood B cells (as the free base) and with Whole blood B cells (hydrochloric acid salts) was over 6.00 each time.

As to `COCn1cc(-c2cc3ncccc3c(NC[C@]3(F)CCCNC3)n2)cn1` [Example 3, N-{[(3S)-3-Fluoro-3-piperidinyl]methyl}-7-{1-[(methyloxy)methyl]-1H-pyrazol-4-yl}-1,6-naphthyridin-5-amine], the IC50 on SYK lysate (as the free base) is ≤ 100 nM and 63.1 nM; at SYK lysate (hydrochloric acid salts), at most 316 nM; with Whole blood B cells (hydrochloric acid salts) it was at most 1000 nM. The pIC50 in the test on Whole blood B cells (as the free base) and in the test with Whole blood B cells (hydrochloric acid salts) was over 6.00 in each case.

With `CCn1cc(-c2cc3ncccc3c(OC[C@]3(F)CCCNC3)n2)cn1` [Example 4, 7-(1-Ethyl-1H-pyrazol-4-yl)-5-({[(3S)-3-fluoro-3-piperidinyl]methyl}oxy)-1,6-naphthyridine], the IC50 at SYK lysate (as the free base) was ≤ 100 nM and 7.94 nM; on SYK lysate (hydrochloric acid salts), at most 316 nM; in the test with Whole blood B cells (hydrochloric acid salts), at most 1000 nM. Moreover, the pIC50 with Whole blood B cells (as the free base) and in the test on Whole blood B cells (hydrochloric acid salts) was over 6.00 in each case.

The values are drawn from US8633319B2, “7-(1H-pyrazol-4-yl)-1,6-naphthyridine compounds as Syk inhibitors” (Glaxo Group Limited, priority 2010, dated 2014).
